Test results reported in patent US20250163047A1, “HETEROCYCLIC COMPOUNDS, COMPOSITIONS THEREOF, AND METHODS OF TREATMENT THEREWITH” (BeiGene, Ltd., priority 2022, published 2025).

Columns and labels:
Cbl (aa49-434) = molecular target: T1, Cbl (aa49-434) (Homo sapiens, UniProt P22681); assay: Co-expressed Cbl with BirA biochemical assay (CBL/E2-Ub binding, HTRF); conditions: 0.6 nM Cbl co-expressed with BirA, read-out: co-express CBL/E2-Ub-binding assay IC50
T1 construct: Cbl (aa49-434, in-house); made in house
T1 sequence (P22681 49-434): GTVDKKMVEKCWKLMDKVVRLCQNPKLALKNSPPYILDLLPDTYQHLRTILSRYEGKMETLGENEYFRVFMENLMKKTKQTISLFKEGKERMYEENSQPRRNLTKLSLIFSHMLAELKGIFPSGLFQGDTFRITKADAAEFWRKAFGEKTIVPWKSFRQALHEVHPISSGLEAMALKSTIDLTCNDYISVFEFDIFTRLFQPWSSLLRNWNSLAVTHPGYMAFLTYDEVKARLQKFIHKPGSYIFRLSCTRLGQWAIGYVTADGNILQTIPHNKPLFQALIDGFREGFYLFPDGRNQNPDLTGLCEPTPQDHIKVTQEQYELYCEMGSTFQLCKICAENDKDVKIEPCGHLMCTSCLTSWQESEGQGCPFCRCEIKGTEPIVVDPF
Excerpt: (§1) The assay in the absence of a Cbl-b/Cbl inhibitor, where phosphorylation of Cbl-b/Cbl by the Src kinase allows UbcH5B-Ub to bind to Cbl-b/Cbl and brings the Bodipy-Fluorescein tagged ubiquitin in proximity to the streptavidin-terbium bound to the N-terminal biotinylated Avi-tagged Cbl-b/Cbl. […] The lack of a FRET signal indicates Cbl-b/Cbl is inhibited by the Cbl-b/Cbl inhibitor.

Cbl-b (aa36-427) = molecular target: T2, Cbl-b (aa36-427) (Homo sapiens, UniProt Q13191); assay: Co-expressed Cbl-b with BirA biochemical assay (CBLB/E2-Ub binding, HTRF); conditions: 0.6 nM Cbl-b co-expressed with BirA, HTRF; read-out: co-express CBLB/E2-Ub-binding assay IC50
T2 construct: Cbl-b (aa36-427, in-house); made in house
T2 sequence (Q13191 36-427): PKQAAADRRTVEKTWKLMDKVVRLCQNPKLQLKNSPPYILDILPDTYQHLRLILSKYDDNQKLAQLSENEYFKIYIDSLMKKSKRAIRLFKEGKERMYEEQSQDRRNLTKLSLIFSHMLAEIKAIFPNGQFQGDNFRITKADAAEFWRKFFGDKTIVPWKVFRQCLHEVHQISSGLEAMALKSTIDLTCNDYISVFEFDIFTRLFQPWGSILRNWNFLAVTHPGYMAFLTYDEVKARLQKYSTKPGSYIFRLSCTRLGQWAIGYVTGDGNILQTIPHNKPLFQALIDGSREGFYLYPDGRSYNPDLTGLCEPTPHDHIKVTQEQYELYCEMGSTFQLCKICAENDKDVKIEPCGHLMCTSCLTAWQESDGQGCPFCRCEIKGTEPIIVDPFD
Excerpt: as §1

SMILES | IC50 (Cbl (aa49-434)) | IC50 (Cbl-b (aa36-427))
CC(C)CNCc1cc(C(=O)Nc2cncc([C@]3(c4nncn4C)C[C@@H](C)C3)c2)c2ncc(F)n2c1 [Compound A79, 3-fluoro-6-((isobutylamino)methyl)-N-(5-((1s, 3s)-3-methyl-1-(4-methyl-4H-1,2,4-triazol-3-yl)cyclobutyl)pyridin-3-yl)imidazo[1,2-a]pyridine-8-carboxamide] | 1.4 nM | 0.73 nM
C[C@H]1CCCN(Cc2cc(C(=O)Nc3cccc([C@]4(c5nncn5C)C[C@@H](CC#N)C4)c3)n3nccc3c2)C1 [Compound A11, 5-{[(3S)-3-methylpiperidin-1-yl]methyl}-N-{3-[(1s, 3s)-3-(cyanomethyl)-1-(4-methyl-1,2,4-triazol-3-yl)cyclobutyl]phenyl}pyrazolo[1,5-a]pyridine-7-carboxamide] | 46.2 nM | 6.6 nM
Cc1cnc2c(C(=O)Nc3cccc([C@]4(c5nncn5C)C[C@@H](C)C4)c3)cc(CN3CC[C@H](F)[C@H](C)C3)cn12 [Compound A46, 6-(((3R,4S)-4-fluoro-3-methylpiperidin-1-yl)methyl)-3-methyl-N-(3-((1s,3S)-3-methyl-1-(4-methyl-4H-1,2,4-triazol-3-yl)cyclobutyl)phenyl)imidazo[1,2-a]pyridine-8-carboxamide] | 5.9 nM | 1.6 nM
Cc1cnc2c(C(=O)Nc3cncc([C@]4(c5nncn5C)C[C@@H](C)C4)c3)cc(CNC3(C)CCC3)cn12 [Compound A80, 3-methyl-N-(5-((1s, 3s)-3-methyl-1-(4-methyl-4H-1,2,4-triazol-3-yl)cyclobutyl)pyridin-3-yl)-6-(((1-methylcyclobutyl)amino)methyl)imidazo[1,2-a]pyridine-8-carboxamide] | 13 nM | 2 nM
Cn1cnnc1[C@]1(c2cccc(NC(=O)c3cc(CNCC4(C)CCC4)cn4c(Cl)cnc34)c2)C[C@H](CC#N)C1 [Compound A35, 3-chloro-N-(3-((1s, 3s)-3-(cyanomethyl)-1-(4-methyl-4H-1,2,4-triazol-3-yl)cyclobutyl)phenyl)-6-((((1-methylcyclobutyl)methyl)amino)methyl)imidazo[1,2-a]pyridine-8-carboxamide] | 13 nM | 2.2 nM
Cc1cnc2c(C(=O)Nc3cccc([C@]4(c5nncn5C)C[C@@H](C)C4)c3)cc(CN[C@@H](C)C3CCC3)cn12 [Compound A60, 6-((((S)-1-cyclobutylethyl)amino)methyl)-3-methyl-N-(3-((1s,3R)-3-methyl-1-(4-methyl-4H-1,2,4-triazol-3-yl)cyclobutyl)phenyl)imidazo[1,2-a]pyridine-8-carboxamide] | 1.1 nM | 0.5 nM

Other lines, results leading:

IC50 (Cbl (aa49-434)) | IC50 (Cbl-b (aa36-427)) | SMILES
2.8 nM | 1.8 nM | C[C@H](NCc1cc(C(=O)Nc2cccc([C@]3(c4nncn4C)C[C@@H](CC#N)C3)c2)nc2c1NCC21CC1)C1CC1 [Compound C36, N-(3-((1s,3R)-3-(cyanomethyl)-1-(4-methyl-4H-1,2,4-triazol-3-yl)cyclobutyl)phenyl)-7′-((((S)-1-cyclopropylethyl)amino)methyl)-1′,2′-dihydrospiro[cyclopropane-1,3′-pyrrolo[3,2-b]pyridine]-5′-carboxamide]
8.8 nM | 3.6 nM | Cn1cnnc1C[C@]1(c2cccc(NC(=O)c3cc(CNCC4(C)CCCC4)c4[nH]ccc4n3)c2)C[C@H](C#N)C1 [Compound B23, N-(3-((1r, 3r)-3-cyano-1-((4-methyl-4H-1,2,4-triazol-3-yl)methyl)cyclobutyl)phenyl)-7-((((1-methylcyclopentyl)methyl)amino)methyl)-1H-pyrrolo[3,2-b]pyridine-5-carboxamide]
1.5 nM | 1.1 nM | C[C@H](NCc1cc(C(=O)Nc2cccc([C@]3(c4nncn4C)C[C@@H](CC#N)C3)c2)nc2c1CCC2(C)C)C1CCC1 [Compound C38, N-(3-((1s,3R)-3-(cyanomethyl)-1-(4-methyl-4H-1,2,4-triazol-3-yl)cyclobutyl)phenyl)-4-((((S)-1-cyclobutylethyl)amino)methyl)-7,7-dimethyl-6,7-dihydro-5H-cyclopenta[b]pyridine-2-carboxamide]
16.5 nM | 1.7 nM | Cn1ccc2c(CNCC3CCC3)cc(C(=O)Nc3cccc([C@]4(c5nncn5C)C[C@@H](C)C4)c3)nc21 [Compound B45, 4-(((cyclobutylmethyl)amino)methyl)-1-methyl-N-(3-((1s, 3s)-3-methyl-1-(4-methyl-4H-1,2,4-triazol-3-yl)cyclobutyl)phenyl)-1H-pyrrolo[2,3-b]pyridine-6-carboxamide]
6.3 nM | 2.7 nM | Cn1cnnc1C[C@]1(c2cccc(NC(=O)c3cc(CNC4CCCCC4)c4c(n3)C(C)(C)CO4)c2)C[C@H](C#N)C1 [Compound C48, N-(3-((1r, 3r)-3-cyano-1-((4-methyl-4H-1,2,4-triazol-3-yl)methyl)cyclobutyl)phenyl)-7-((cyclohexylamino)methyl)-3,3-dimethyl-2,3-dihydrofuro[3,2-b]pyridine-5-carboxamide]
24.4 nM | 3.8 nM | C[C@H](NCc1cc(C(=O)Nc2cccc([C@]3(c4nncn4C)C[C@@H](C)C3)c2)nc2c1OCC2(C)C)C1CC1 [Compound C35, 7-((((S)-1-cyclopropylethyl)amino)methyl)-3,3-dimethyl-N-(3-((1s,3R)-3-methyl-1-(4-methyl-4H-1,2,4-triazol-3-yl)cyclobutyl)phenyl)-2,3-dihydrofuro[3,2-b]pyridine-5-carboxamide]
1.8 nM | 0.7 nM | C[C@H](NCc1cc(C(=O)Nc2cccc([C@]3(c4nncn4C)C[C@@H](C)C3)c2)nc2cc[nH]c12)C1CC1 [Compound B3, 7-((((S)-1-cyclopropylethyl)amino)methyl)-N-(3-((1s,3R)-3-methyl-1-(4-methyl-4H-1,2,4-triazol-3-yl)cyclobutyl)phenyl)-1H-pyrrolo[3,2-b]pyridine-5-carboxamide]
1.5 nM | 1 nM | Cn1cnnc1[C@]1(c2cccc(NC(=O)c3cc(CNCC4CCC4)c4[nH]ccc4n3)c2)C[C@H](C)C1 [Compound B32, 7-(((cyclobutylmethyl)amino)methyl)-N-(3-((1s, 3s)-3-methyl-1-(4-methyl-4H-1,2,4-triazol-3-yl)cyclobutyl)phenyl)-1H-pyrrolo[3,2-b]pyridine-5-carboxamide]
6.9 nM | 4 nM | C[C@H]1CCCN(Cc2cc(C(=O)Nc3cccc(C4(Cc5nncn5C)COC4)c3)nc3cc[nH]c23)C1 [Compound B6, (S)—N-(3-(3-((4-methyl-4H-1,2,4-triazol-3-yl)methyl)oxetan-3-yl)phenyl)-7-((3-methylpiperidin-1-yl)methyl)-1H-pyrrolo[3,2-b]pyridine-5-carboxamide]
4.5 nM | 0.8 nM | C[C@H](NCc1cc(C(=O)Nc2cccc([C@]3(c4nncn4C)C[C@@H](C)C3)c2)nc2c(F)c[nH]c12)C1CC1 [Compound B37, 7-((((S)-1-cyclopropylethyl)amino)methyl)-3-fluoro-N-(3-((1s,3R)-3-methyl-1-(4-methyl-4H-1,2,4-triazol-3-yl)cyclobutyl)phenyl)-1H-pyrrolo[3,2-b]pyridine-5-carboxamide]
25.1 nM | 1.5 nM | Cn1cnnc1[C@]1(c2cccc(NC(=O)c3cc(CNC4(C)CCC4)c4c(n3)C(F)(F)CC4)c2)C[C@H](CC#N)C1 [Compound C42, N-(3-((1s, 3s)-3-(cyanomethyl)-1-(4-methyl-4H-1,2,4-triazol-3-yl)cyclobutyl)phenyl)-7,7-difluoro-4-(((1-methylcyclobutyl)amino)methyl)-6,7-dihydro-5H-cyclopenta[b]pyridine-2-carboxamide]
49.5 nM | 2.8 nM | Cn1cnnc1[C@]1(c2cccc(NC(=O)c3cc(CNCC4(C)CCC4)c4c(n3)C(C)(C)CO4)c2)C[C@H](CC#N)C1 [Compound C25, N-(3-((1s, 3s)-3-(cyanomethyl)-1-(4-methyl-4H-1,2,4-triazol-3-yl)cyclobutyl)phenyl)-3,3-dimethyl-7-((((1-methylcyclobutyl)methyl)amino)methyl)-2,3-dihydrofuro[3,2-b]pyridine-5-carboxamide]
0.6 nM | 0.6 nM | C[C@H](NCc1cc(C(=O)Nc2cncc([C@]3(c4nncn4C)C[C@@H](C)C3)c2)nc2cc[nH]c12)C1CCC1 [Compound B43, 7-({[(1S)-1-cyclobutylethyl]amino}methyl)-N-{5-[(1r, 3s)-3-methyl-1-(4-methyl-1,2,4-triazol-3-yl)cyclobutyl]pyridin-3-yl}-1H-pyrrolo[3,2-b]pyridine-5-carboxamide]
1.1 nM | 1.5 nM | C[C@H]1CCCN(Cc2cc(C(=O)Nc3cccc([C@]4(Cc5nncn5C)C[C@@H](C#N)C4)c3)nc3c2NCC32CC2)C1 [Compound C17, N-(3-((1r,3S)-3-cyano-1-((4-methyl-4H-1,2,4-triazol-3-yl)methyl)cyclobutyl)phenyl)-7′-(((S)-3-methylpiperidin-1-yl)methyl)-1′,2′-dihydrospiro[cyclopropane-1,3′-pyrrolo[3,2-b]pyridine]-5′-carboxamide]
